# Values joined by “and” are separate entries in the source; they are usually repeats but may differ in a detail not shown here. Identical values can stand only once.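 Method: 48-hour compound exposure of cells in 96-well plates, five concentrations, linear interpolation of endpoints. Abbreviation: GI50, concentration required for 50% inhibition of growth. Definition used: TGI = concentration required for complete inhibition of growth.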
# What was measured:
# Assay in all cases: DTP human tumour cell line panel, 48 h
# [1] = tested on: EKVX NSCLC
# [2] = tested on: 786-0 renal
# [3] = tested on: NCI-H226 lung
# [4] = tested on: KM12 colon
# [5] = tested on: SF-268 CNS
# [6] = tested on: SNB-19 CNS
# [7] = tested on: SK-OV-3 ovarian
# [8] = tested on: SK-MEL-2 melanoma
# [9] = tested on: ACHN renal
# [10] = tested on: HOP-92 NSCLC
SMILES,GI50 [1],TGI [1],GI50 [2],TGI [2],GI50 [3],TGI [3],GI50 [4],TGI [4],GI50 [5],TGI [5],GI50 [6],TGI [6],GI50 [7],TGI [7],GI50 [8],TGI [8],GI50 [9],TGI [9],GI50 [10],TGI [10]
COCc1c(-c2cc3cc(C)cc(OC)c3s2)c2c(N)ncnn2c1CN1CCNC(=O)C1,2.67 µM,29.8 µM,5.86 µM,82.9 µM,0.291 µM,5.41 µM,5.62 µM,77.6 µM,4.3 µM,> 100 µM,8.21 µM,> 100 µM,2.62 µM,7.72 µM,2.83 µM,8.61 µM,4.31 µM,55.5 µM,1.29 µM,5.92 µM
O=C(Nc1cccc(O)c1)c1ccc(NC2=C(Cl)C(=O)N(Cc3ccc(Cl)cc3Cl)C2=O)cc1,6.74 µM,13.6 µM,7.2 µM,> 57 µM,6.78 µM,26.7 µM,1.84 µM,3.66 µM,2.01 µM,4.75 µM,2.69 µM,7.68 µM,4.6 µM,14.7 µM,5.29 µM,14.5 µM,1.75 µM,3.21 µM,1.86 µM,4.16 µM
ClC/C=C/COC1CCCCO1 (centres undefined),,> 100 µM,,> 100 µM,,> 100 µM,,> 100 µM,,> 100 µM,,> 100 µM,,> 100 µM,,> 100 µM,,> 100 µM,,> 100 µM
O=C1C=CC=C/C1=C1/SC(c2ccccc2)=C(O)N1c1ccccc1,,> 100 µM,,> 100 µM,,> 100 µM,,> 100 µM,,> 100 µM,,> 100 µM,,> 100 µM,,> 100 µM,,> 100 µM,,> 100 µM
CC1=C2[C@@H](CC1)[C@]1(C)O[C@@](C(C)C)(C[C@H]1OC(=O)CO)[C@H]2OC(=O)C1CC1c1ccccc1 (some centres undefined),8.21 µM,22.7 µM,15.1 µM,32.2 µM,16.2 µM,35.7 µM,12.9 µM,27.4 µM,13 µM,27.9 µM,16.7 µM,34.6 µM,16.4 µM,30.7 µM,15.5 µM,32.3 µM,3.05 µM,20.9 µM,11.8 µM,24.6 µM
CC1/C(=N\O)CC(c2ccccc2)N(C)C1c1ccccc1 (centres undefined),,> 100 µM,,> 100 µM,,> 100 µM,,> 100 µM,,> 100 µM,,> 100 µM,,> 100 µM,,> 100 µM,,> 100 µM,,> 100 µM
CCOCCCn1c2c(c3c(O)cccc31)C(=O)c1ccccc1-2,24.3 µM,79 µM,22 µM,51.9 µM,24.1 µM,81.6 µM,16.6 µM,39.4 µM,18.1 µM,50.3 µM,26.7 µM,> 100 µM,24.8 µM,72.4 µM,20.3 µM,38.5 µM,20.6 µM,55 µM,16.8 µM,43.3 µM
O=C1CC(c2ccccc2)=Nc2ccccc2N1,,> 100 µM,,> 100 µM,,> 100 µM,,> 100 µM,,> 100 µM,,> 100 µM,,> 100 µM,,> 100 µM,,> 100 µM,,> 100 µM
CCOC(=O)/C(=C/c1ccc(C(=O)OC)cc1)N(CC)CC,,> 100 µM,,> 100 µM,,79 µM,,> 100 µM,,> 100 µM,,> 100 µM,,> 100 µM,,> 100 µM,,> 100 µM,,> 100 µM
O=S(=O)(O)c1cc(O)c(N=Nc2ccc(O)cc2O)c2ccccc12,,> 100 µM,,> 100 µM,,48.5 µM,,> 100 µM,,> 100 µM,,> 100 µM,,> 100 µM,,> 100 µM,,> 100 µM,,> 100 µM
Cc1cccc(C)c1NC(=O)C1=NC(=S)NC(c2ccccc2)C1c1nc2ccccc2s1 (centres undefined),,> 100 µM,,> 100 µM,,> 100 µM,,> 100 µM,,> 100 µM,,> 100 µM,,> 100 µM,,> 100 µM,,> 100 µM,,> 100 µM
CCN(Cc1ccccc1)C1CCN(Cc2cc(Br)ccc2O)CC1,31.9 µM,> 100 µM,35.9 µM,> 100 µM,> 100 µM,> 100 µM,42.3 µM,> 100 µM,59.7 µM,> 100 µM,57.2 µM,> 100 µM,77.4 µM,> 100 µM,85.4 µM,> 100 µM,79.7 µM,> 100 µM,10.4 µM,> 100 µM
O=c1[nH]c2ccccc2nc1/C=C(\O)c1ccccc1O,,> 100 µM,,> 100 µM,,> 100 µM,,> 100 µM,,> 100 µM,,> 100 µM,,> 100 µM,,> 100 µM,,> 100 µM,,> 100 µM
CCOC(=O)Oc1cc2c(c(OC)c1OC)-c1ccc(OC)c(=O)cc1C(NC(C)=O)CC2 (centres undefined),,> 100 µM,,> 100 µM,,0.787 µM,,1.68 µM,,73.5 µM,,92.4 µM,,98.1 µM,,> 17.1 µM,,> 100 µM,,28.7 µM
CC1CC[P+](c2ccccc2)(c2ccccc2)c2c1ccc1ccccc21 (centres undefined),92 µM,> 100 µM,11 µM,43.4 µM,8.48 µM,62.8 µM,,14.8 µM,,> 100 µM,,97.4 µM,2.73 µM,16.4 µM,,7.13 µM,,> 81.5 µM,,5.43 µM
COc1ccc(C/C(=C(\C)c2ccc(OCCN3CCCC3)cc2)c2ccc(OCCN3CCCC3)cc2)cc1,2.21 µM,5.89 µM,1.63 µM,3.24 µM,2.54 µM,7.64 µM,1.79 µM,3.52 µM,1.97 µM,4.19 µM,2.12 µM,4.75 µM,1.86 µM,3.68 µM,1.87 µM,3.53 µM,1.74 µM,3.12 µM,1.96 µM,8.25 µM

SMILES,GI50 [1],TGI [1],GI50 [2],TGI [2],GI50 [3],TGI [3],GI50 [4],TGI [4],GI50 [5],TGI [5],GI50 [6],TGI [6],GI50 [7],TGI [7],GI50 [8],TGI [8],GI50 [9],TGI [9],GI50 [10],TGI [10]
O=C(/C=C\c1ccc([N+](=O)[O-])cc1)c1ccccc(=O)c1O,,11.9 µM,,4.05 µM,,6.7 µM,,2.87 µM,,37.3 µM,,16.8 µM,,17.2 µM,,6.93 µM,,2.85 µM,,7.77 µM
COc1cccc(CC(C)=C(c2ccc(OCCN3CCCCC3)cc2)c2ccc(OCCN3CCCCC3)cc2)c1,2.03 µM,4.48 µM,1.87 µM,3.89 µM,2.33 µM,5.12 µM,1.93 µM,4.11 µM,2.08 µM,4.32 µM,2.11 µM,4.13 µM,2.2 µM,4.23 µM,2.73 µM,5.71 µM,2.16 µM,4.07 µM,0.612 µM,2.59 µM
COc1ccc(/C(COc2ccc3oc(-c4ccccc4)cc(=O)c3c2)=N\O)cc1,0.229 µM,1.91 µM,0.855 µM,> 35.6 µM,12.3 µM,> 50 µM,0.0245 µM,1.89 µM,0.162 µM,1.36 µM,8.57 µM,> 36.5 µM,0.747 µM,> 33.5 µM,32.1 µM,> 50 µM,0.331 µM,20 µM,> 31.2 µM,> 50 µM
CN(C)CCNC(=O)c1cccc2cc3c(Cl)cccc3nc12,,9.58 µM,,> 20.2 µM,,2.73 µM,,7.28 µM,,,,7.32 µM,,10.8 µM,,3.5 µM,,2.35 µM,,4.28 µM
CC1C(C)N(C(=O)CCl)c2ccccc2N1C(=O)CCl (centres undefined),0.941 µM,2.42 µM,0.937 µM,3.02 µM,1.11 µM,3.52 µM,0.55 µM,1.34 µM,0.582 µM,2.11 µM,2.16 µM,5.4 µM,1.58 µM,3 µM,1.66 µM,4.54 µM,0.309 µM,0.783 µM,0.709 µM,1.84 µM
COCN1COCN=C1NC#N,,> 100 µM,,> 100 µM,,> 100 µM,,> 100 µM,,> 100 µM,,> 100 µM,,> 100 µM,,> 100 µM,,> 100 µM,,> 100 µM
C=C/C=C/[C@@H](O)CC(=C)C[C@H]1OC2[C@H](C)[C@@H](OC(=O)C[C@H]3C[C@H](OC(C)=O)C[C@@]4(C[C@@](C)(O)C[C@H](CC(=C)[C@@H](C)[C@H](OC(C)=O)[C@H](C)C(=O)C[C@@H]5C[C@H](OC)CC6(C[C@@H](O)C[C@H](/C=C\CCC[C@H]7O[C@](O)(C=C[C@H]7C)[C@H]2O)O6)O5)O4)O3)[C@@H]1O,,> 25 µM,0.000572 µM and 0.0025 µM,> 25 µM,0.000503 µM and 0.0025 µM,,0.000327 µM and 0.0025 µM,,0.00406 µM and 0.0025 µM,0.0413 µM and 0.277 µM,0.000625 µM and 0.0025 µM,> 25 µM,0.000465 µM and 0.0025 µM,,0.0025 µM,0.00308 µM,0.00472 µM and 0.00856 µM,> 25 µM,0.0227 µM and 0.0025 µM,15.1 µM
COc1ncc(Nc2ncc([C@@H](C)N3CCN(S(C)(=O)=O)CC3)cc2-c2nc(C)nc(N)n2)cc1F,0.486 µM,12.6 µM,0.0192 µM,2.86 µM,2.59 µM,> 100 µM,1.33 µM,> 100 µM,0.452 µM,> 100 µM,0.325 µM,> 66.8 µM,0.0171 µM,0.394 µM,2.05 µM,> 69.6 µM,0.0651 µM,> 100 µM,< 0.01 µM,1.19 µM
COC(=O)c1ccc(CN2C(=O)C(Cl)=C(Nc3cccc(Cl)c3C)C2=O)cc1,46.8 µM,> 100 µM,15.6 µM,51.5 µM,11 µM,> 100 µM,4.03 µM,> 100 µM,45.3 µM,> 100 µM,> 100 µM,> 100 µM,> 100 µM,> 100 µM,3.48 µM,21.9 µM,33.7 µM,90.4 µM,17 µM,> 100 µM
CN(C)C(=N/O)/C(=N\O)N(C)C,,> 100 µM,,> 100 µM,,> 100 µM,,> 100 µM,,> 100 µM,,> 100 µM,,> 100 µM,,> 100 µM,,> 100 µM,,> 100 µM
O=C(/C=C/c1ccccc1F)c1ccc(Cl)c(Cl)c1,,> 100 µM,,31.4 µM,,> 100 µM,,45 µM,,> 100 µM,,> 100 µM,,> 100 µM,,> 100 µM,,> 100 µM,,> 100 µM
NC(=O)c1cc([N+](=O)[O-])c(Cl)c([N+](=O)[O-])c1Cl,2.08 µM,4.85 µM,1.44 µM,2.87 µM,1.79 µM,3.36 µM,1.61 µM,3.02 µM,1.64 µM,3.07 µM,2.29 µM,5.93 µM,4.21 µM,14.5 µM,1.71 µM,3.16 µM,1.63 µM,3.71 µM,1.84 µM,3.45 µM
COc1cc(Nc2ncc(-c3ccccc3)o2)cc(OC)c1,> 25 µM,> 25 µM,> 25 µM,> 25 µM,> 12.5 µM,> 25 µM,1.59 µM,> 25 µM,> 25 µM,> 25 µM,> 25 µM,> 25 µM,> 25 µM,> 25 µM,> 25 µM,> 25 µM,17.4 µM,> 25 µM,> 25 µM,> 25 µM
CCc1cccc(C)c1NC(=O)C(=O)CC(=O)c1ccc(Cl)s1,,> 100 µM,,> 100 µM,,> 100 µM,,> 100 µM,,> 100 µM,,> 100 µM,,> 100 µM,,> 100 µM,,> 100 µM,,> 100 µM
O=C(Nc1ccccc1)Nc1ccc2cc3ccc(NC(=O)Nc4ccccc4)cc3nc2c1,4.29 µM,> 100 µM,1.64 µM,3.34 µM,1.71 µM,4.15 µM,1.47 µM,4.07 µM,1.68 µM,3.54 µM,1.58 µM,3.05 µM,2.13 µM,4.5 µM,1.72 µM,3.24 µM,3.57 µM,> 100 µM,1.58 µM,3.2 µM
